# According to US6333311A, “Useful properties of human lactoferrin and variants thereof” (Pharming, priority 1998, dated 2001):
# Experiments:
# [1] = biological target: T1, human lactoferrin, natural hLF (purified from human milk, 3.5% saturated with iron) (Homo sapiens, UniProt P02788); assay: Competitive inhibition of hLF binding to solid-phase lipid A, competitor natural hLF; conditions: concentration of unlabelled natural hLF giving 50% inhibition of the response of 12.5 nM biotinylated hLF on immobilized lipid A; mean ± SD of at least 4 experiments
# T1 construct: Human LF was purified from fresh human milk by cation-exchange chromatography; from tissue; host or cells: fresh human milk
# T1 sequence (P02788 with tags, fused parts or gaps limits assumed): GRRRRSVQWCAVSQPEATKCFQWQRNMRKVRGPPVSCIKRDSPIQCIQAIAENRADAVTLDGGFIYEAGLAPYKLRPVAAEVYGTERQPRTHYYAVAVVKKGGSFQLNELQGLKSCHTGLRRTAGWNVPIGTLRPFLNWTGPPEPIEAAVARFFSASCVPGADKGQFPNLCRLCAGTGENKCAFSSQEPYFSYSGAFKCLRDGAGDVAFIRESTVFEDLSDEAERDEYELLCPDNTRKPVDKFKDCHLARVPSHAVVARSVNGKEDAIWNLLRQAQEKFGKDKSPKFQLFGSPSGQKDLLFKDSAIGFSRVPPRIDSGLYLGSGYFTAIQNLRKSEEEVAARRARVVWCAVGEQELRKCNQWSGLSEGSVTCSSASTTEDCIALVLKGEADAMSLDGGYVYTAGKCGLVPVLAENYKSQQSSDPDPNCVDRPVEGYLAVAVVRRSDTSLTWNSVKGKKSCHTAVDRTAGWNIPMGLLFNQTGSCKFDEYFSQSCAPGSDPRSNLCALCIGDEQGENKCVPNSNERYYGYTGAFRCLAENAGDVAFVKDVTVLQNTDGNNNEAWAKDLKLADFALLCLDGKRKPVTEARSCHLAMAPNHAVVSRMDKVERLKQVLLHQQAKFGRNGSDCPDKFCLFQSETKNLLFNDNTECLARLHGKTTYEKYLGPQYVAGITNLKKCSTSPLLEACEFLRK
# [2] = biological target: T2, human lactoferrin, iron-saturated hLF (Homo sapiens, UniProt P02788); assay: Competitive inhibition of hLF binding to solid-phase lipid A, competitor iron-saturated hLF; conditions: concentration of unlabelled iron-saturated hLF giving 50% inhibition of the response of 12.5 nM biotinylated hLF on immobilized lipid A; mean ± SD of at least 4 experiments
# T2 construct: Human LF was purified from fresh human milk by cation-exchange chromatography; from tissue; host or cells: fresh human milk
# T2 sequence (P02788 with tags, fused parts or gaps limits assumed): as above
# human transferrin (hTF) = human transferrin (hTF) (Homo sapiens, UniProt P02787); assay: Competitive inhibition of hLF binding to solid-phase lipid A, competitor hTF; conditions: hTF as competitor of 12.5 nM biotinylated hLF binding to immobilized lipid A
# Sequence of human transferrin (hTF) (P02787 20-698): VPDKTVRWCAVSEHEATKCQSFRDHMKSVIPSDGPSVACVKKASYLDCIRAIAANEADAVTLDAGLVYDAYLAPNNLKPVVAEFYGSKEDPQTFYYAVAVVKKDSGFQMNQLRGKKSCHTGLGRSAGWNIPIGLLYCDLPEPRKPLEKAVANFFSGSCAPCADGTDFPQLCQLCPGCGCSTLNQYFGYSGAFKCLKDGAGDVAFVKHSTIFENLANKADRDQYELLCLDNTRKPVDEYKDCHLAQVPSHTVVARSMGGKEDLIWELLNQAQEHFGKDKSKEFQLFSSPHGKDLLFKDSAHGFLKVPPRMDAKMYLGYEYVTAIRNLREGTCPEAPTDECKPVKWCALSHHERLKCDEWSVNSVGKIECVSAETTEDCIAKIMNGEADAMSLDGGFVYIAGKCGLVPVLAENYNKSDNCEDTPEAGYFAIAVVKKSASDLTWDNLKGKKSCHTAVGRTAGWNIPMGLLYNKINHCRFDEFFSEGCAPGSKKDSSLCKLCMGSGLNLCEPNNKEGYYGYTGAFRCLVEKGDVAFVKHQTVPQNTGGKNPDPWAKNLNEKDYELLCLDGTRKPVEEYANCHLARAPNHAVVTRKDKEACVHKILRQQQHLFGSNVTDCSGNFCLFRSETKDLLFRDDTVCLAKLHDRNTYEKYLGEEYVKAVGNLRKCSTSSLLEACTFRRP
substance,measurement,setting,value
Lipid A,IC50,[1],1.7 ± 0.5 nM
same,IC50,[2],1.3 ± 0.4 nM
same,"IC50 Competitor, hTF",human transferrin (hTF),no competition
